One test concerns the target T1, src protein kinase (Gallus gallus, UniProt P00523).
T1 construct: made in house; host or cells: Schizosaccharomyces pombe (yeast transformed with src, lysate)
The experiment in a line: Biochemical src assay - ELISA. The method, then:
This assay is used to determine src protein kinase activity measuring phosphorylation of a biotinylated peptide as the readout.
h. […] S. Pombe strain SP200 (h-s leul.32 ura4 ade210) is grown as described and transformations are pRSP expression plasmids are done by the lithium acetate method (Superti-Furga, supra). Cells are grown in the presence of 1 μM thiamine to repress expression from the nmtl promoter or in the absence of thiamine to induce expression.
2. Add 0.08 mL Kinase Reaction Mixture per well (containing 10 μL of 10×Kinase Buffer and 10 μM (final concentration) biotin-[…] per well diluted in water.
(§1) 3. Add 10 μL of compound diluted in water containing 10% DMSO and pre-incubate for 15 minutes at room temperature.
4. Start kinase reaction by adding 10 μL/well of 0.05 mM ATP in water (5 μM ATP final).
(§2) The IC50 values were measured for several of the compounds of the invention.
A general note: ELISA stands for enzyme-linked immunosorbent assay.

Test [1] deals with HUV-EC-C cells. The experiment in a line: HUV-EC-C assay, aFGF (3H-thymidine incorporation). It counts as cell-based, human. Here is the method:
(§3) The following protocol may also be used to measure a compound's activity against PDGF-R, FGF-R, VEGF, aFGF or Flk-1/KDR, all of which are naturally expressed by HUV-EC cells.
(§4) 1. […] After cells have detached from the flask, add an equal volume of assay medium and transfer to a 50 mL sterile centrifuge tube (Fisher Scientific; catalogue no. 05-539-6).
(§5) 1. Make up two-fold drug titrations in separate 96-well plates, generally 50 μM on down to 0 μM. Use the same assay medium as mentioned in day 0, step 2 above. Titrations are made by adding 90 μl/well of drug at 200 μM (4×the final well concentration) to the top well of a particular plate column. Since the stock drug concentration is usually 20 mM in DMSO, the 200 μM drug concentration contains 2% DMSO.
Therefore, diluent made up to 2% DMSO in assay medium (F12K+0.5% fetal bovine serum) is used as diluent for the drug titrations in order to dilute the drug but keep the DMSO concentration constant. Add this diluent to the remaining wells in the column at 60 μl/well. Take 60 μl from the 120 μl of 200 μM drug dilution in the top well of the column and mix with the 60 μl in the second well of the column. Take 60 μl from this well and mix with the 60 μl in the third well of the column, and so on until two-fold titrations are completed. When the next-to-the-last well is mixed, take 60 μl of the 120 μl in this well and discard it. Leave the last well with 60 μl of DMSO/media diluent as a non-drug-containing control. Make 9 columns of titrated drug, enough for triplicate wells each for 1) VEGF (obtained from Pepro Tech Inc., catalogue no. 100-200, 2) endothelial cell growth factor (ECGF) (also known as acidic fibroblast growth factor, or aFGF) (obtained from Boehringer Mannheim Biochemica, catalogue no. 1439 600); or, 3) human PDGF B/B (1276-956, Boehringer Mannheim, Germany) and assay media control. ECGF comes as a preparation with sodium heparin.
2. Transfer 50 μl/well of the drug dilutions to the 96-well assay plates containing the 0.8-1.0×10^4 cells/100 μl/well of the HUV-EC-C cells from day 0 and incubate ~2 h at 37° C., 5% CO2.
3. In triplicate, add 50 μl/well of […] VEGF, 20 ng/mL ECGF, or media control to each drug condition. As with the drugs, the growth factor concentrations are 4×the desired final concentration. Use the assay media from day 0 step 2 to make the concentrations of growth factors. Incubate approximately 24 hours at 37° C., 5% CO2. Each well will have 50 μl drug dilution, 50 μl growth factor or media, and 100 ul cells, =200 ul/well total. Thus the 4×concentrations of drugs and growth factors become 1× once everything has been added to the wells.
1. Add ^3 H-thymidine (Amersham; catalogue no. TRK-686) at 1 μCi/well (10 μl/well of 100 μCi/mL solution made up in RPMI media+10% heat-inactivated fetal bovine serum) and incubate ~24 h at 37° C., 5% CO2. RPMI is obtained from Gibco BRL, catalogue no. 11875-051.
(§6) 1. Thaw plates and harvest with a 96-well plate harvester (Tomtec Harvester 96®) onto filter mats (Wallac; catalogue no. 1205-401); read counts on a Wallac Betaplate™ liquid scintillation counter.
as §2
In general terms: Uptake of a labelled nucleoside into DNA is a usual measure of proliferation.

A further test concerns the target FAK (Homo sapiens, UniProt Q05397). In words: FAK assay. It counts as biochemical. The conditions noted are these: Table 2.
The target of test [2] is T2, PDGFr (Homo sapiens, UniProt P09619). In words: PDGF-R ELISA. More on the design: cells (U1242, obtained from Joseph Schlessinger, NYU); endogenous in cells; host or cells: U1242. It counts as cell-based.
T2 sequence (P09619 33-1106): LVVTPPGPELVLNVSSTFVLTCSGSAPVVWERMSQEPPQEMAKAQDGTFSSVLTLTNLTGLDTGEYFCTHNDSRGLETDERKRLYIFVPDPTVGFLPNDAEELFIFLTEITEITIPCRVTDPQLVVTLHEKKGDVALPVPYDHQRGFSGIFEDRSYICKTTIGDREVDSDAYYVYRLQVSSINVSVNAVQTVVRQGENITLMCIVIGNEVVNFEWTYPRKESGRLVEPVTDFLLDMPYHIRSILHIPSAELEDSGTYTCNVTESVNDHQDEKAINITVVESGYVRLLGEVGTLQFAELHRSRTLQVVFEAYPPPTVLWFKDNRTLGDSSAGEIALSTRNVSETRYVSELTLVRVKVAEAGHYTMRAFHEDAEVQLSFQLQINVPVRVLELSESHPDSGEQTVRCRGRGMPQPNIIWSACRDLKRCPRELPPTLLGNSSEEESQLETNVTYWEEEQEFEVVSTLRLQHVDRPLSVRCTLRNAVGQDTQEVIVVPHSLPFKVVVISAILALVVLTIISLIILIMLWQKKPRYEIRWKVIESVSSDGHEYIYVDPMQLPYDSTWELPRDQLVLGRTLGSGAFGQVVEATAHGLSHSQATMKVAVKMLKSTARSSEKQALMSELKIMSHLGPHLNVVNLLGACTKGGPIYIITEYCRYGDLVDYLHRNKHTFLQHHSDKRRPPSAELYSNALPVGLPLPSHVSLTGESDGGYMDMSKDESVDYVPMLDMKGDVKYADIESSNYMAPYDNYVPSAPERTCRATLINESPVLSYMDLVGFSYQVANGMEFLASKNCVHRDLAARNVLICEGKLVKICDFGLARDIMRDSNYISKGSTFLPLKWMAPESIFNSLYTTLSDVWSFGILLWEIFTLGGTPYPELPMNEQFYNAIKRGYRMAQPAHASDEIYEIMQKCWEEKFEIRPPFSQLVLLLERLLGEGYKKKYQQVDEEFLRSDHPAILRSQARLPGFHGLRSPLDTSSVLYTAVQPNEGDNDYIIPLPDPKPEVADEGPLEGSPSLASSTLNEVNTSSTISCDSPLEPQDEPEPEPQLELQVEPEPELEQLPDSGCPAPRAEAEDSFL
Method: All cell culture media, glutamine, and fetal bovine serum can be purchased from Gibco Life Technologies (Grand Island, N.Y.) unless otherwise specified. […] All cell lines are routinely subcultured twice a week and are negative for mycoplasma as determined by the Mycotect method (Gibco).
For ELISA assays, cells (U1242, obtained from Joseph Schlessinger, NYU) are grown to 80-90% confluency in growth medium (MEM with 10% FBS, NEAA, 1 mM NaPyr and 2 mM GLN) and seeded in 96-well tissue culture plates in 0.5% serum at 25,000 to 30,000 cells per well. After overnight incubation in 0.5% serum-containing medium, cells are changed to serum-free medium and treated with test compound for 2 hr in a 5% CO2, 37° C. incubator. […] Lysates are incubated with shaking for 1 hour at room temperature. The plates are washed with TBST four times and then incubated with polyclonal anti-phosphotyrosine antibody at room temperature for 30 minutes. Excess anti-phosphotyrosine antibody is removed by rinsing the plate with TBST four times. Goat anti-rabbit IgG antibody is added to the ELISA plate for 30 min at room temperature followed by rinsing with TBST four more times. […] Absorbance at 410 nm with a reference wavelength of 630 nm is recorded about 15 to 30 min after ABTS addition.
The target in another test is T3, lck protein kinase (Homo sapiens, UniProt P06239).
T3 construct: made in house; host or cells: Schizosaccharomyces pombe strain SP200 (lysate)
T3 sequence (P06239 whole entry): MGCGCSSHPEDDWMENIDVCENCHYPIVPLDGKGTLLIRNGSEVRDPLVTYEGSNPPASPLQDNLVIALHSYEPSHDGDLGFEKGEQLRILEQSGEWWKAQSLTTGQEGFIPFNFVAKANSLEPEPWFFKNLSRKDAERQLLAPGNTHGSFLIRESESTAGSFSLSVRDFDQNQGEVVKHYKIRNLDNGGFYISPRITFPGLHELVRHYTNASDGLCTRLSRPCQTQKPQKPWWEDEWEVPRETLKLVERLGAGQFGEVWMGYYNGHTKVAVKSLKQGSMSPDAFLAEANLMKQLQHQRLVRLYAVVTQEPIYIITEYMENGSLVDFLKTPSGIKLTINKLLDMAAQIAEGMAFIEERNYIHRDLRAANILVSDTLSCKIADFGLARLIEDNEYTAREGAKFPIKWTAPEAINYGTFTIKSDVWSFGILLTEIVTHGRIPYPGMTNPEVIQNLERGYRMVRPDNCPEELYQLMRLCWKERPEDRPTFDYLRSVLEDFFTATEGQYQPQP
The experiment in a line: Biochemical lck assay - ELISA. The method, then:
This assay is used to determine lck protein kinase activities measuring phosphorylation of GST-.zeta. as the readout.
b. Yeast transformed with lck. […] S. Pombe strain SP200 (h-s leul.32 ura4 ade210) is grown as described and transformations with pRSP expression plasmids are done by the lithium acetate method (Superti-Furga, supra). Cells are grown in the presence of 1 μM thiamine to induce expression.
2. Add 0.08 mL Kinase Reaction Mixture per well (containing 10 μl of 10×Kinase Buffer and 2 μg GST-.zeta. per well diluted with water).
as §1
4. Start kinase reaction by adding 10 μL/well of 0.1 mM ATP in water (10 μM ATP final).
The IC50 values were measured for one of the compounds of the invention.

The subject of test [3] is HUV-EC-C cells. The experiment in a line: HUV-EC-C assay, VEGF (3H-thymidine incorporation). It counts as cell-based, human. The conditions noted are these: Table 2, VEGF-stimulated HUV-EC-C, read-out: HUV-EC-C ATCC VEGF IC50. Here is the method:
as §3, §4, §5
Therefore, diluent made up to 2% DMSO in assay medium (F12K+0.5% fetal bovine serum) is used as diluent for the drug titrations in order to dilute the drug but keep the DMSO concentration constant. Add this diluent to the remaining wells in the column at 60 μl/well. […]
as §6, §2

The next test has as its target T4, FLK-1 receptor (Mus musculus, UniProt P35918).
T4 construct: expressed in transfected cells; host or cells: NIH3T3 C7#3 cells
In words: FLK-1 ELISA (kinase activity of the FLK-1 receptor in engineered cells). The note with it: Table 2; read-out: FLK-1R IC50. The format is cell-based.

Test [4] deals with T5, EGFr (Homo sapiens, UniProt P00533). In words: EGF receptor ELISA. The format is cell-based. More on the design: expressed in transfected cells; host or cells: NIH 3T3/C7. The note with it: Table 2; read-out: EGFR IC50. Here is the method: EGF Receptor kinase activity in cells genetically engineered to express human EGF-R can be measured as described below:
1. Check seeded cells for contamination using an inverted microscope. Dilute drug stock (10 mg/mL in DMSO) 1:10 in DMEM medium, then transfer 5 μL to a test well for a final drug dilution of 1:200 and a final DMSO concentration of 1%. Control wells receive DMSO alone. Incubate in 5% CO2 at 37° C. for one hour.
5. After two hours incubation with drug, add prepared EGF ligand to cells, 10 μL per well, to yield a final concentration of 25 nM. Control wells receive DMEM alone. Incubate, shaking, at room temperature, for 5 minutes.
12. The maximal phosphotyrosine signal is determined by subtracting the value of the negative controls from the positive controls. The percent inhibition of phosphotyrosine content for extract-containing wells is then calculated, after subtraction of the negative controls.

Test [5] deals with Myc-GyrB-FGFR fusion protein. The experiment in a line: Assay measuring the kinase activity of the FGF receptor (Myc-GyrB-FGFR fusion protein). The format is biochemical. The note with it: Table 5; 7 μM ATP. Here is the method:
The following protocol describes the reagents and procedures used to analyze protein tyrosine kinase activity of the Myc-GyrB-FGFR fusion protein.
5. Add 15 μg COS/FGFR cell lysate Myc-GyrB-FGFR sources per well in HNTG for a final volume of 100 μL per well. Incubate while shaking on a micro-liter plate shaker at room temperature for 2 hours.
9. At this point diluted Compounds/Extracts are added to the ELISA plate. Transfer 10 μL of diluted test and control wells from the polypropylene plate wells to the corresponding ELISA plate wells. Incubate while shaking on a micro-liter plate shaker at room temperature for 20 minutes.
10. Add 10 μL of 70 μM ATP diluted in kinase buffer to positive control and test wells (Final ATP concentration is 7 μM/well.) Add 10 μL of 1×kinase buffer to negative control wells. Incubate while shaking on a micro-liter plate shaker at room temperature for 15 min.
22. Read assay on Dynatech MR7000 ELISA Plate Reader.
as §2

Test [6] addresses T5, EGFr. The experiment in a line: EGF-induced BrdU incorporation assay. It counts as cell-based. The note with it: Table 8.
The subject of a further test is FGFr. In words: FGF-induced BrdU incorporation assay. It counts as cell-based. The conditions noted are these: Table 8.
Test [7] deals with T2, PDGFr. The experiment in a line: PDGF-induced BrdU incorporation assay. The format is cell-based. Details: expressed in transfected cells; host or cells: 3T3 cell line. The note with it: Table 8; BrdU incorporation, 3.8 nM PDGF; read-out: PDGFr IC50.
Method: (8) 3T3 cell line genetically engineered to express human PDGF-R.
Cells were seeded at 8000 cells/well in DMEM, 10% CS, 2 mM Gln in a 96 well plate. Cells were incubated overnight at 37° C. in 5% CO2.
The negative control wells received serum free DMEM with 0.1% BSA only; the positive control cells received the ligand (PDGF) but no test compound.
The absorbance of the samples were measured at 410 nm (in "dual wavelength" mode with a filter reading at 490 nm, as a reference wavelength) on a Dynatech ELISA plate reader.

A value given as a limit tells only on which side of the number the result lay.

T5 sequence (P00533 25-1210): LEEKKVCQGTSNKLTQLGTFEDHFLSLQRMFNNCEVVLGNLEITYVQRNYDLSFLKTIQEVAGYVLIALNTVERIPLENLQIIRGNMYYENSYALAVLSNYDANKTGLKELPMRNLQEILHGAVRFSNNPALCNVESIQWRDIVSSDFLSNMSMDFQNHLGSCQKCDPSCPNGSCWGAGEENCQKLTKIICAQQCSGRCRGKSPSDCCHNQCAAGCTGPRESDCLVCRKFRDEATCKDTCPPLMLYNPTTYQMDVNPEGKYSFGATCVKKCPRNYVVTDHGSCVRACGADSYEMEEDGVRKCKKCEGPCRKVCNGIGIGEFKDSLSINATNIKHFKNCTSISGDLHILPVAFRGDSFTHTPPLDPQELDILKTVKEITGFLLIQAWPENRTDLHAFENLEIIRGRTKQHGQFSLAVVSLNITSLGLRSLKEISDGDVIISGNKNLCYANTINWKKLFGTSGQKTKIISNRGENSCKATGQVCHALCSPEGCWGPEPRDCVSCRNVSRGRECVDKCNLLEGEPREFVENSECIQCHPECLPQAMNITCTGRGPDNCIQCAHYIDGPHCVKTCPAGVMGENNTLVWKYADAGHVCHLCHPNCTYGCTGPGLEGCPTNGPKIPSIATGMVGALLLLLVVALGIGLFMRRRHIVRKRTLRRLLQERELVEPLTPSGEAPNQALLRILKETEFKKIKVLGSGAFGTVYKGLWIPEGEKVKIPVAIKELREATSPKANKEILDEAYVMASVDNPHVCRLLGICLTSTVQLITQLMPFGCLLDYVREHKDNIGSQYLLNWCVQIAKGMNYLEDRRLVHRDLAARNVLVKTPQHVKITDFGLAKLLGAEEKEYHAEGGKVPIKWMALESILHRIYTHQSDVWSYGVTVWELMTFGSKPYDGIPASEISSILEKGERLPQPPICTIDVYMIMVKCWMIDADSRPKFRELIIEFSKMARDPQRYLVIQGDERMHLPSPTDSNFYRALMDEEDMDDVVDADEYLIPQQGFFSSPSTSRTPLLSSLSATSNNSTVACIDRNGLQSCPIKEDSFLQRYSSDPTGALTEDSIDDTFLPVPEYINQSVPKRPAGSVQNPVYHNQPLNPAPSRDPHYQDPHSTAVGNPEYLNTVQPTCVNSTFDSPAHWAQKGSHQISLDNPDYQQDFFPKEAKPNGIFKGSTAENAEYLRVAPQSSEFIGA
Chain of FAK (Q05397 whole entry, species assumed): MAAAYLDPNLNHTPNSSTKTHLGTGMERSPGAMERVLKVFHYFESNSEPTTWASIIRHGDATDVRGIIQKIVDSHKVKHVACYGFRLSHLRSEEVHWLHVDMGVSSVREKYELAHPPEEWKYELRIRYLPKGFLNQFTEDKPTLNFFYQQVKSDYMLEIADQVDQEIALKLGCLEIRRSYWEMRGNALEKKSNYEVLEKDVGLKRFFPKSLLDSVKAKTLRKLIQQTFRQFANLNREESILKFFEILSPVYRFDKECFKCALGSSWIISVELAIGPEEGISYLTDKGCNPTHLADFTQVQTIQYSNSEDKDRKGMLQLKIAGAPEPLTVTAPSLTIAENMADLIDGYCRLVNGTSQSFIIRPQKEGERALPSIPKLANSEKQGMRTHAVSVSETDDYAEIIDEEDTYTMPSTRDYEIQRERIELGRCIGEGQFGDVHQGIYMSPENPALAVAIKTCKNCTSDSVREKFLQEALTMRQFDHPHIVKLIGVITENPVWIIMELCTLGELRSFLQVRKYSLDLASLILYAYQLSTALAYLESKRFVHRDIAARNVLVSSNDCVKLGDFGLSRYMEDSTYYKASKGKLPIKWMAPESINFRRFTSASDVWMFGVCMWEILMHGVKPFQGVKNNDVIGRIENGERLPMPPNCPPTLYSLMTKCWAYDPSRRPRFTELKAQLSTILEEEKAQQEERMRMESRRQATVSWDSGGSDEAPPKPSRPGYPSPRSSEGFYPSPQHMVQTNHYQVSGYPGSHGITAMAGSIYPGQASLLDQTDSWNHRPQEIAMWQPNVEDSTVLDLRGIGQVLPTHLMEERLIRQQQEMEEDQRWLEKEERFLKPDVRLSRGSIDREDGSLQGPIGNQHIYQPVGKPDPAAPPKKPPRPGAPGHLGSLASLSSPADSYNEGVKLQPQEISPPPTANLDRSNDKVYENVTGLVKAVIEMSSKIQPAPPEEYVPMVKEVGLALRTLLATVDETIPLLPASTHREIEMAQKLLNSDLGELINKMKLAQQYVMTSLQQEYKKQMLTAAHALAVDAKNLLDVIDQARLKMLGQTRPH

As to `NS(=O)(=O)c1ccc2c(c1)C(=Cc1cc3c([nH]1)CCCC3)C(=O)N2`, the IC50 (in general, the concentration needed to halve the response being measured) at src protein kinase (Table 2) is 0.8 µM; in the test on HUV-EC-C cells [1] (Homo sapiens, Table 2, aFGF-stimulated HUV-EC-C, read-out: HUV-EC-C ATCC aFGF IC50) it was 2.4 µM; in the test on HUV-EC-C cells [1] (Table 2, aFGF-stimulated HUV-EC-C, read-out: HUV-EC-C ATCC aFGF IC50) it was 3.3 µM; against FAK, greater than 10 µM; at PDGFr [2] (read-out: PDGFR IC50, Table 2) it was 1 µM; at lck protein kinase (Table 2), 0.7 µM. In addition, the IC50 in the test on HUV-EC-C cells [3] (Homo sapiens) was 0.65 µM; with HUV-EC-C cells [3], 1.07 µM; on FLK-1 receptor, greater than 100 µM; on EGFr [4], greater than 100 µM.
Consider `CC(=O)c1ccc2c(c1)C(=Cc1cc3c([nH]1)CCCC3)C(=O)N2` [5-acetyl-3-(4,5,6,7-tetrahydro-1H-indol-2-ylmethylene)-1,3-dihydro-indol-2-one], for which the IC50 against src protein kinase (Table 6, 5 μM ATP, biotinylated peptide substrate) was 17.8 µM; in the test on HUV-EC-C cells [1] (Homo sapiens, Table 9, aFGF (ECGF)-stimulated HUV-EC-C, 3H-thymidine, read-out: aFGF IC50) it was 28.8 µM; in [5], greater than 20 µM; against EGFr [6], 36.5 µM; at PDGFr [2] (Table 4, ligand-stimulated U1242 cells, read-out: PDGF-R IC50), greater than 100 µM; at lck protein kinase (Table 7, 10 μM ATP, GST-zeta substrate) it was greater than 100 µM. Moreover, the IC50 is greater than 50 µM in the test with FGFr and greater than 0.07 µM on PDGFr [7].
